Test results as given in US20250388571A1, “AMP-ACTIVATED PROTEIN KINASE MODULATOR COMPOUNDS AND USES THEREOF” (Biolexis Therapeutics, Inc., priority 2024, published 2025).
“Also recorded” adds a separate entry of the source.

Experiments:
AMPK (A2/B1/G3) = AMPK (A2/B1/G3) (Homo sapiens, UniProt P54646+Q9UGI9+Q9Y478); test: AMPK kinase binding activity in activation mode (AC50); type: biochemical
AMPK (A2/B1/G2) = AMPK (A2/B1/G2) (Homo sapiens, UniProt P54646+Q9UGJ0+Q9Y478); test: as above; type: biochemical
AMPK (A2/B1/G2), sequence (P54646 whole entry): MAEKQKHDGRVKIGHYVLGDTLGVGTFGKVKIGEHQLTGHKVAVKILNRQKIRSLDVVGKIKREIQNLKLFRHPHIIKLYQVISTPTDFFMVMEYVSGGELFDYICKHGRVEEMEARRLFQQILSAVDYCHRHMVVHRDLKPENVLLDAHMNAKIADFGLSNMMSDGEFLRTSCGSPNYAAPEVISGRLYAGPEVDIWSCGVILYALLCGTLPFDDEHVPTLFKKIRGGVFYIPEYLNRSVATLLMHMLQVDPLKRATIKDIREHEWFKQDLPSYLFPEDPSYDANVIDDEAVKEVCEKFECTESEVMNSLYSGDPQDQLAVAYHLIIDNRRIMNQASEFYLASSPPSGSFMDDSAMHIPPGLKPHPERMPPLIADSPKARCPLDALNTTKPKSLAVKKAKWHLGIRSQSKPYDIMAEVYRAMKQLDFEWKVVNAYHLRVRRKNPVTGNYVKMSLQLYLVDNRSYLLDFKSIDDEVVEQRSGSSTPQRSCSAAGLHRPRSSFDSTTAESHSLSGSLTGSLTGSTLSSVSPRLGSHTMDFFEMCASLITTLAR
AMPK (A2/B1/G2), sequence (Q9Y478 whole entry): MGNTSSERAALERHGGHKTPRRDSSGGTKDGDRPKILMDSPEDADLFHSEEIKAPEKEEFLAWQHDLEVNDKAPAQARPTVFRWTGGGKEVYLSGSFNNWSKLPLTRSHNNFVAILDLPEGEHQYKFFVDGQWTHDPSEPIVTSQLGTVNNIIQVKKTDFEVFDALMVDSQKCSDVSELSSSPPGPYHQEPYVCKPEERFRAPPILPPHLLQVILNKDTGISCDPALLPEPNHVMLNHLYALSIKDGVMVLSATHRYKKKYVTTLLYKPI
AMPK (A2/B1/G2), sequence (Q9UGJ0 whole entry): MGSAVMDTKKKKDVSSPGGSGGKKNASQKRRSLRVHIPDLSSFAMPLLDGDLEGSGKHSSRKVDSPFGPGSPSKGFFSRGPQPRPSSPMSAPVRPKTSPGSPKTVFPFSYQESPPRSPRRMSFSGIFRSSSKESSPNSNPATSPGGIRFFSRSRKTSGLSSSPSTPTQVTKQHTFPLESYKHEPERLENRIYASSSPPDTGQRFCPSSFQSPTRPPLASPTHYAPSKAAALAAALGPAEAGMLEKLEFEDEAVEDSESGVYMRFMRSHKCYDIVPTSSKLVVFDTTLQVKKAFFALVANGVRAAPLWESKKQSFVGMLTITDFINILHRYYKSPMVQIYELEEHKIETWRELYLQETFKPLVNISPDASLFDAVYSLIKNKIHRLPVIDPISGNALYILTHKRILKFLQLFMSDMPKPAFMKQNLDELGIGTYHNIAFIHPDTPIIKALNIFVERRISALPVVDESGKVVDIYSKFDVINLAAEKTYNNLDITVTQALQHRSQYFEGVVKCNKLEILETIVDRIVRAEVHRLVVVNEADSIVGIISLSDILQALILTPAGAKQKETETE
Description: In Vitro AMPK Kinase Inhibition Experiments

AMPK (A2/B1/G1) = AMPK (A2/B1/G1) (Homo sapiens, UniProt P54619+P54646+Q9Y478); test: as above; type: biochemical
AMPK (A2/B1/G1), sequence (P54646 whole entry): as the sequence (P54646 whole entry) above
AMPK (A2/B1/G1), sequence (Q9Y478 whole entry): as the sequence (Q9Y478 whole entry) above
AMPK (A2/B1/G1), sequence (P54619 whole entry): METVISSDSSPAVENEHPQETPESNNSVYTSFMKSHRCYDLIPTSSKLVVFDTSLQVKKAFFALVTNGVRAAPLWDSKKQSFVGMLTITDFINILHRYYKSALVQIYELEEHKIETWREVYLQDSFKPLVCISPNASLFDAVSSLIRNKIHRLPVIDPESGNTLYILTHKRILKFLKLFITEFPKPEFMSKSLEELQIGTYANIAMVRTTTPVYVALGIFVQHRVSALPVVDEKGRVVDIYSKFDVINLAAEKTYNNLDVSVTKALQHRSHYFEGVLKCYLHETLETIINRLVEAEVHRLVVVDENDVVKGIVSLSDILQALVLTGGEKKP

[1] = tested on: human skeletal muscle cells (HSKM cells); test: Glucose uptake assay, human skeletal muscle cells; type: cell-based; conditions: for glucose uptake: starved, treated 1 hour; for dose dependence of glucose uptake (printed: activation of insulin / AMPK activation): 100 μM to 0.005 μM, 1 hour
Experimental: FIGS. 1-4 show results for cells treated with differing doses of representative compounds of Structure (I) (i.e., compound I-11 in FIG. 1 and compound I-7 in FIG. 2) as well reference compounds (i.e., PF-06409577 in FIG. 3 and MK-8722 in FIG. 4). […] Cells were starved for 3 hours in high glucose DMEM without FBS, then treated with indicated compounds in DMEM without FBS/glucose for 1 hour, and glucose uptake was detected using an uptake glucose kit (Promega). The bars show (from left to right) concentrations of 100 μM, 33 μM, 11 μM, 3.7 μM, 1.23 μM, 0.41 μM, 0.14 μM, 0.045 μM, 0.015 μM, 0.005 μM, 0 μM, and insulin.
(§1) Human skeletal myoblasts were obtained (Thermofisher; BYU) and cultured in DMEM/F12 medium with 10% FBS. For differentiation, 2% horse serum low glucose DMEM medium was employed for 72 hours. Human cardiomyocytes cells (HCM cells; Promocell) were cultured in myocyte growth medium (Promocell). Human preadipocyte HWP-c cells (Promocell) were obtained from upper arm of diabetic II donor. Human preadipocyte HWP-c cells (Promocell) were obtained from abdomen of diabetic II donor. For differentiating human preadipocytes, cells were cultured in preadipocyte growth medium to total confluency stage. The growth medium was replaced with preadipocyte differentiation medium for 72 hours, then changed to PromoCell adipocyte nutrition medium to complete the differentiation process. THLE-2 cells were cultured in BEGM from Lonza/Clonetics Corporation, Walkersville, MD 21793 (BEGM Bullet Kit; CC3170). HepG2, L6 and C2Cl2 cells were cultured in EMEM medium.
(§2) After differentiation myoblasts, preadipocyte cells were starved by removing the medium and adding 100 μL DMEM without serum. The medium was then replaced with 100 μL DMEM±1 μM insulin at indicated concentration of representative compounds without serum or glucose. The cells were then incubated for 1 hour at 37° C. in 5% CO2. The cells were then removed from the medium and 50 μL of 0.1 mM 2DG in PBS was added. Cells were incubated for 30 minutes at 25° C. 25 μL of Stop Buffer was added and samples were mixed. 25 μL of Neutralization Buffer was then added and mixed. 100 μL of 2DG6P Detection Reagent was then added and mixed. Samples were then incubated for 1 hour at 25° C. Luminescence was then recorded with 0.3-1 second integration on a luminometer.

[2] = tested on: Human white preadipocyte (HWP) cells; test: Glucose uptake assay, human white preadipocyte cells; type: cell-based; conditions: for glucose uptake: human adipocyte cells / HWP-c cells, donor site not stated
Experimental: (§3) FIGS. 5-8 show results for glucose update assays in Human white preadipocyte (HWP) cells (Promocell, cat. No. C-12735) when treated with compound I-11 (FIG. 5), compound I-7 (FIG. 6), MK-8722 (FIG. 7), and PF-06409577 (FIG. 8). HWP cells (subcutaneous upper arm of obese patient) were starved for 3 hours in DMEM without FBS, treated with the components noted above in […] DMEM without FBS/glucose for 1 hour, and glucose uptake was detected using a glucose uptake kit (Promega). […] The bars show (from left to right) concentrations of 100 μM, 33 μM, 11 μM, 3.7 μM, 1.23 μM, 0.41 μM, 0.14 μM, 0.045 μM, 0.015 μM, 0.005 μM, 0 μM, and insulin.
as §3, with “9-12” for “5-8”, “9),” for “5),”, “10),” for “6),”, “11),” for “7),”, “12).” for “8).”, “(abdomen cells)” for “(subcutaneous upper arm of obese patient)”
as §1, §2

[3] = tested on: AMPK signal pathway in HSKM cells; test: Western blot assay, HSKM cells; type: cell-based, human; conditions: some high dosage groups; cell type not given
[4] = tested on: human cardiomyocyte cells (HCM); test: Glucose uptake assay, human cardiomyocyte cells; type: cell-based; conditions: for glucose uptake: donor not stated; for AMPK activation activity (glucose uptake assay): 10 doses 100 μM to 0.005 μM
Experimental: FIGS. 17-19 show results for glucose update assays in human cardiomyocyte cells (“HCM”-healthy donor) (Promocell, cat. no. C-12810) when treated with compound I-11 (FIG. 17), compound I-7 (FIG. 18), and PF-06409577 (FIG. 19). After recovered HCM cells for 4 days, cells were starved for 3 hours in high glucose DMEM without FBS, treated with the components noted above in DMEM without FBS/glucose for 1 hour, and glucose uptake was detected using a glucose uptake kit (Promega). […] The bars show (from left to right) concentrations of 100 μM, 33 μM, 11 μM, 3.7 μM, 1.23 μM, 0.41 μM, 0.14 μM, 0.045 μM, 0.015 μM, 0.005 μM, 0 μM, and insulin.
FIGS. 20-22 show results for glucose update assays in human cardiomyocyte cells (“HCM”-diabetic donor) (Promocell, cat. no. C-12810) when treated with compound I-11 (FIG. 20), compound I-7 (FIG. 21), and PF-06409577 (FIG. 22). After recovered HCM cells for 4 days, cells were starved for 3 hours in high glucose DMEM without FBS, treated with the components noted above in DMEM without FBS/glucose for 1 hour, and glucose uptake was detected using a glucose uptake kit (Promega). […] The bars show (from left to right) concentrations of 100 μM, 33 μM, 11 μM, 3.7 μM, 1.23 μM, 0.41 μM, 0.14 μM, 0.045 μM, 0.015 μM, 0.005 μM, 0 μM, and insulin.
as §1, §2

[5] = tested on: human hepatocytes-THLE-2 cells; test: Glucose uptake assay, THLE-2 cells; type: cell-based
Experimental: FIGS. 13-16 show results for glucose update assays in THLE-2 cells (ATCC, cat. No. CRL-2706) when treated with compound I-11 (FIG. 13), compound I-7 (FIG. 14), MK-8722 (FIG. 15), and PF-06409577 (FIG. 16). The THLE-2 cells were starved for 3 hours in high glucose DMEM without FBS, treated with the components noted above in DMEM without FBS/glucose for 1 hour, and glucose uptake was detected using a glucose uptake kit (Promega). The bars show (from left to right) concentrations of 100 μM, 33 μM, 11 μM, 3.7 μM, 1.23 μM, 0.41 μM, 0.14 μM, 0.045 μM, 0.015 μM, 0.005 μM, 0 μM, and insulin.
as §1, §2

AMPK (A2/B1/G3), sequence (P54646 whole entry): as the sequence (P54646 whole entry) above
AMPK (A2/B1/G3), sequence (Q9Y478 whole entry): as the sequence (Q9Y478 whole entry) above
AMPK (A2/B1/G3), sequence (Q9UGI9 whole entry): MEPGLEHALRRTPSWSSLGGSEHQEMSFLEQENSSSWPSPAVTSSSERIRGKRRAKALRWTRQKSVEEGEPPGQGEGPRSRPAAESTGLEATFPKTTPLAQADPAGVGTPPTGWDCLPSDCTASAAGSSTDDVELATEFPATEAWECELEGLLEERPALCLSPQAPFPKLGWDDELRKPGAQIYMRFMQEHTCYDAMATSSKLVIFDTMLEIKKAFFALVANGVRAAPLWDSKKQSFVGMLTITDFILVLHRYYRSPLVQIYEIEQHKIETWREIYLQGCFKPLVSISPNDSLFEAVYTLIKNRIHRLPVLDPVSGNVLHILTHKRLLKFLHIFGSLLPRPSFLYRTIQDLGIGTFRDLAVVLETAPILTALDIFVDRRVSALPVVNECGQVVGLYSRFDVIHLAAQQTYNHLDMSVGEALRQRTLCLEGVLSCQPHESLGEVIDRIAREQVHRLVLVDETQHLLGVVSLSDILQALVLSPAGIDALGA

SMILES | AC50 (AMPK (A2/B1/G3)) | AC50 (AMPK (A2/B1/G2)) | AC50 (AMPK (A2/B1/G1)) | glucose uptake [1] | glucose uptake [4] | other results
O=c1[nH]c(-c2c[nH]c3cc(F)c(-c4ccc(C5(O)COC5)cc4)cc23)no1 [Compound I-12, 3-(6-fluoro-5-(4-(3-hydroxyoxetan-3-yl)phenyl)-1H-indol-3-yl)-1,2,4-oxadiazol-5(4H)-one] | 10 to 500 nM | 10 to 500 nM |  |  |  | 
COc1ccc(-c2cc3c(-c4noc(=O)[nH]4)c[nH]c3cc2F)cn1 [Compound I-16, 3-(6-fluoro-5-(6-methoxypyridin-3-yl)-1H-indol-3-yl)-1,2,4-oxadiazol-5(4H)-one] | 500 to 5000 nM | 500 to 5000 nM | 5000 to 7500 nM |  |  | 
O=c1[nH]c(-c2c[nH]c3ccc(N4CC[C@H](O)C4)cc23)no1 [Compound I-20, (S)-3-(5-(3-hydroxypyrrolidin-1-yl)-1H-indol-3-yl)-1,2,4-oxadiazol-5(4H)-one] | 500 to 5000 nM |  | 5000 to 7500 nM |  |  | 
O=c1[nH]c(-c2c[nH]c3cc(F)c(-c4ccc(C5(O)COC5)cc4)c(F)c23)no1 [Compound I-13, 3-(4,6-difluoro-5-(4-(3-hydroxyoxetan-3-yl)phenyl)-1H-indol-3-yl)-1,2,4-oxadiazol-5(4H)-one] | ≤ 10 nM | ≤ 10 nM | 10 to 500 nM | increased glucose uptake |  | 
COc1ccc(-c2cc3c(-c4noc(=O)[nH]4)c[nH]c3cc2F)c(OC)n1 [Compound I-14, 3-(5-(2,6-dimethoxypyridin-3-yl)-6-fluoro-1H-indol-3-yl)-1,2,4-oxadiazol-5(4H)-one] | 10 to 500 nM |  | 10 to 500 nM |  |  | 
O=c1[nH]c(-c2c[nH]c3cc(Cl)c(-c4ccc(C5(O)CCC5)cc4)cc23)no1 [Compound I-1, 3-(6-chloro-5-(4-(1-hydroxycyclobutyl)phenyl)-1H-indol-3-yl)-1,2,4-oxadiazol-5(4H)-one] | ≤ 10 nM | ≤ 10 nM | 10 to 500 nM | induced glucose uptake; also recorded: increased glucose uptake | did not induce glucose uptake in dose-dependent manner | glucose uptake [2]: induced glucose uptake; p-AMPK, p-ACC, and p-Raptor expression [3]: could induce; glucose uptake [5]: induced glucose uptake
O=c1[nH]c(-c2c[nH]c3ccc(-c4ccc(C5(O)CCC5)cc4)cc23)no1 [Compound I-10, 3-(5-(4-(1-hydroxycyclobutyl)phenyl)-1H-indol-3-yl)-1,2,4-oxadiazol-5(4H)-one] | 10 to 500 nM | 10 to 500 nM | 10 to 500 nM | induced glucose uptake; also recorded: increased glucose uptake | did not induce glucose uptake in dose-dependent manner | glucose uptake [2]: induced glucose uptake; p-AMPK, p-ACC, and p-Raptor expression [3]: could induce; glucose uptake [5]: induced glucose uptake
O=c1[nH]c(-c2c[nH]c3cc(F)c(-c4ccc(C5(O)CCC5)cc4)cc23)no1 [Compound I-7, 3-(6-fluoro-5-(4-(1-hydroxycyclobutyl)phenyl)-1H-indol-3-yl)-1,2,4-oxadiazol-5(4H)-one] |  |  |  | induced glucose uptake; also recorded: increased glucose uptake | did not induce glucose uptake in dose-dependent manner | dose dependence of glucose uptake (printed: activates insulin) ([2]; HWP cells, abdomen cells, 100 μM to 0.005 μM, 1 hour): dose dependent manner; glucose uptake [2]: induced glucose uptake; dose dependence of glucose uptake (printed: activation of insulin / AMPK activation) [1]: dose dependence; p-AMPK, p-ACC, and p-Raptor expression [3]: could induce; AMPK activation activity (glucose uptake assay) ([4]; diabetic donor): did not show AMPK activation activity; AMPK activation activity (glucose uptake assay) ([4]; healthy donor): did not show AMPK activation activity; glucose uptake [5]: induced glucose uptake
COc1ncccc1-c1cc2c(-c3noc(=O)[nH]3)c[nH]c2cc1F [Compound I-15, 3-(6-fluoro-5-(2-methoxypyridin-3-yl)-1H-indol-3-yl)-1,2,4-oxadiazol-5(4H)-one] | 10 to 500 nM | ≤ 10 nM | 10 to 500 nM |  |  | 
O=c1[nH]c(-c2c[nH]c3cc(F)c(-c4ccc(C5(O)COC5)nc4)cc23)no1 [Compound I-18, 3-(6-fluoro-5-(6-(3-hydroxyoxetan-3-yl)pyridin-3-yl)-1H-indol-3-yl)-1,2,4-oxadiazol-5(4H)-one] |  |  | 7500 to 20000 nM |  |  | 
COc1ccc(-c2c(F)cc3[nH]cc(-c4noc(=O)[nH]4)c3c2F)c(OC)n1 [Compound I-17, 3-(5-(2,6-dimethoxypyridin-3-yl)-4,6-difluoro-1H-indol-3-yl)-1,2,4-oxadiazol-5(4H)-one] | 500 to 5000 nM | 500 to 5000 nM | 500 to 5000 nM |  |  | 
O=C(O)c1c[nH]c2cc(Cl)c(-c3ccc(C4CCCO4)cc3)cc12 (stereo not shown) [PF-06409577, reference compound] |  |  |  |  | did not induce glucose uptake in dose-dependent manner | dose dependence of glucose uptake (printed: activation of insulin / AMPK activation) [1]: highly variable; AMPK activation activity (glucose uptake assay) ([4]; diabetic donor): significant variability; AMPK activation activity (glucose uptake assay) ([4]; healthy donor): significant variability
